System: L. acidophilus NCFM
Assay: RNA-seq transcriptional analysis of L. acidophilus NCFM growing on plant glycosides
Format: cell-based, Lactobacillus acidophilus
[1] = LBA1481 D-ribose-binding protein precursor, COG G
[2] = LBA1482 Ribose ABC transporter, COG G
[3] = LBA1483 Ribose ABC transporter ATP binding protein, COG G
[4] = LBA1484 D-ribose pyranase, COG G
[5] = LBA1494 Lincomycin-resistance protein, COG GEPR
[6] = LBA1607 Phosphatidylserine decarboxylase precursor, COG I
[7] = LBA1632 NAD-dependent aldehyde dehydrogenase, COG C
[8] = LBA1653 Nicotinamide mononucleotide, COG H
[9] = LBA1684 Putative PTS system IIA component, COG G
[10] = LBA1689 Maltose-6′-phosphate Oucosidase, COG G
[11] = LBA1700 Transcriptional regulator-type, COG K
[12] = LBA1701 Melibiose operon regulatory protein, COG K
[13] = LBA1705 PTS system IIBC component, COG G
[14] = LBA1708 Transcriptional antiterminator, COG K
[15] = LBA1710 Thermostable pullulanase, COG G
[16] = LBA1812 Alpha-glucosidase II, COG G
[17] = LBA1870 Maltose phosphorylase, COG G
[18] = LBA1872 Oligo-1,6-glucosidase, COG G
[19] = LBA1955 Transcription regulator family protein, COG K
[20] = gene LBA0046 (Hypothetical protein)
[21] = gene LBA0149 (Putative nucleotide-binding protein)
[22] = gene LBA0263 (Hypothetical protein)

In the case of O=c1ccc2cc(O[C@@H]3O[C@H](CO)[C@@H](O)[C@H](O)[C@H]3O)c(O)cc2o1 [Esculin], the “Transcripts per million (rpm)” value (LBA1468 Beta-galactosidase small subunit, COG G) is reported as 38.7 rpm, the “Log2 differential normalized TPM ratio compared to glucose” value [1] is reported as 0.9 and the “Log2 differential normalized TPM ratio compared to lactose” value [1] is reported as 0.1. For the same compound, the “Transcripts per million (rpm)” value [1] was 9.2 rpm, the “Log2 differential normalized TPM ratio compared to glucose” value [2] was 1 and the “Log2 differential normalized TPM ratio compared to lactose” value [2] was 0. The “Transcripts per million (rpm)” value [2] was 8.1 rpm, the “Log2 differential normalized TPM ratio compared to glucose” value [3] was 0.4 and the “Log2 differential normalized TPM ratio compared to lactose” value [3] was −0.7. The “Transcripts per million (rpm)” value [3] was 4.2 rpm, the “Log2 differential normalized TPM ratio compared to glucose” value [4] was 0.4 and the “Log2 differential normalized TPM ratio compared to lactose” value [4] was −0.3. The “Transcripts per million (rpm)” value [4] was 5.3 rpm, the “Log2 differential normalized TPM ratio compared to glucose” value (LBA1485 Ribokinase, COG G) was −0.3 and the “Log2 differential normalized TPM ratio compared to lactose” value (LBA1485 Ribokinase, COG G) was −1. The “Transcripts per million (rpm)” value (LBA1485 Ribokinase, COG G) was 2.7 rpm, the “Log2 differential normalized TPM ratio compared to glucose” value [5] was 3.6 and the “Log2 differential normalized TPM ratio compared to lactose” value [5] was 3.6. The “Transcripts per million (rpm)” value [5] was 69.4 rpm, the “Log2 differential normalized TPM ratio compared to glucose” value [6] was 1.5 and the “Log2 differential normalized TPM ratio compared to lactose” value [6] was 0.5. For the same compound, the “Transcripts per million (rpm)” value [6] was 59.5 rpm, the “Log2 differential normalized TPM ratio compared to glucose” value [7] was 3.3 and the “Log2 differential normalized TPM ratio compared to lactose” value [7] was 1.5. For the same compound, the “Transcripts per million (rpm)” value [7] was 730.5 rpm, the “Log2 differential normalized TPM ratio compared to glucose” value [8] was 2 and the “Log2 differential normalized TPM ratio compared to lactose” value [8] was 1.4. For the same compound, the “Transcripts per million (rpm)” value [8] was 996.7 rpm, the “Log2 differential normalized TPM ratio compared to glucose” value [9] was 2.9 and the “Log2 differential normalized TPM ratio compared to lactose” value [9] was 1. For the same compound, the “Transcripts per million (rpm)” value [9] was 98.9 rpm, the “Log2 differential normalized TPM ratio compared to glucose” value [10] was 1.8 and the “Log2 differential normalized TPM ratio compared to lactose” value [10] was 0.3. For the same compound, the “Transcripts per million (rpm)” value [10] was 12.7 rpm, the “Log2 differential normalized TPM ratio compared to glucose” value [11] was 1.5 and the “Log2 differential normalized TPM ratio compared to lactose” value [11] was 1. For the same compound, the “Transcripts per million (rpm)” value [11] was 61.9 rpm, the “Log2 differential normalized TPM ratio compared to glucose” value [12] was 4.9 and the “Log2 differential normalized TPM ratio compared to lactose” value [12] was 4.1. For the same compound, the “Transcripts per million (rpm)” value [12] was 1259.8 rpm, the “Log2 differential normalized TPM ratio compared to glucose” value [13] was 2.2 and the “Log2 differential normalized TPM ratio compared to lactose” value [13] was 1.3. For the same compound, the “Transcripts per million (rpm)” value [13] was 15.9 rpm, the “Log2 differential normalized TPM ratio compared to glucose” value [14] was 1.4 and the “Log2 differential normalized TPM ratio compared to lactose” value [14] was 0. For the same compound, the “Transcripts per million (rpm)” value [14] was 1.6 rpm, the “Log2 differential normalized TPM ratio compared to glucose” value [15] was 0.3 and the “Log2 differential normalized TPM ratio compared to lactose” value [15] was −0.1. For the same compound, the “Transcripts per million (rpm)” value [15] was 9.6 rpm, the “Log2 differential normalized TPM ratio compared to glucose” value (LBA1723 Transposase, COG L) was 0 and the “Log2 differential normalized TPM ratio compared to lactose” value (LBA1723 Transposase, COG L) was −0.2. For the same compound, the “Transcripts per million (rpm)” value (LBA1723 Transposase, COG L) was 55.8 rpm, the “Log2 differential normalized TPM ratio compared to glucose” value [16] was 2.8 and the “Log2 differential normalized TPM ratio compared to lactose” value [16] was 0.8. For the same compound, the “Transcripts per million (rpm)” value [16] was 120.6 rpm, the “Log2 differential normalized TPM ratio compared to glucose” value [17] was 0 and the “Log2 differential normalized TPM ratio compared to lactose” value [17] was 1.2. The “Transcripts per million (rpm)” value [17] was 109.2 rpm, the “Log2 differential normalized TPM ratio compared to glucose” value (LBA1871 Neopullulanase, COG G) was 2.1 and the “Log2 differential normalized TPM ratio compared to lactose” value (LBA1871 Neopullulanase, COG G) was 1.4. For the same compound, the “Transcripts per million (rpm)” value (LBA1871 Neopullulanase, COG G) was 12.2 rpm, the “Log2 differential normalized TPM ratio compared to glucose” value [18] was 1 and the “Log2 differential normalized TPM ratio compared to lactose” value [18] was 0.6. The “Transcripts per million (rpm)” value [18] was 6.3 rpm, the “Log2 differential normalized TPM ratio compared to glucose” value (LBA1873 Acetate kinase, COG C) was 0.8 and the “Log2 differential normalized TPM ratio compared to lactose” value (LBA1873 Acetate kinase, COG C) was −0.5. For the same compound, the “Transcripts per million (rpm)” value (LBA1873 Acetate kinase, COG C) was 6.4 rpm, the “Log2 differential normalized TPM ratio compared to glucose” value (LBA1878 Glycerol kinase, COG C) was 2.1 and the “Log2 differential normalized TPM ratio compared to lactose” value (LBA1878 Glycerol kinase, COG C) was 2. For the same compound, the “Transcripts per million (rpm)” value (LBA1878 Glycerol kinase, COG C) was 38 rpm, the “Log2 differential normalized TPM ratio compared to glucose” value [19] was −1.3 and the “Log2 differential normalized TPM ratio compared to lactose” value [19] was −0.9. The “Transcripts per million (rpm)” value [19] was 218.2 rpm, the “number of up-regulated genes” value (RNA-seq, compared to glucose) was 87 genes and the “number of uniquely induced genes” value (RNA-seq, up-regulated genes not shared with the other PGs) was 35. For the same compound, the “Log2 differential normalized TPM ratio compared to glucose” value [20] was 2.2, the “Log2 differential normalized TPM ratio compared to lactose” value [20] was 1.5 and the “Transcripts per million (rpm)” value [20] was 1439.6 rpm. The “Log2 differential normalized TPM ratio compared to glucose” value [21] was 1.4, the “Log2 differential normalized TPM ratio compared to lactose” value [21] was 0.6 and the “Transcripts per million (rpm)” value [21] was 1325.7 rpm. For the same compound, the “Log2 differential normalized TPM ratio compared to glucose” value [22] was 1.8, the “Log2 differential normalized TPM ratio compared to lactose” value [22] was 1.1 and the “Transcripts per million (rpm)” value [22] was 59.9 rpm.

From patent US20200222474A1, “COMPOSITIONS AND METHODS FOR INCREASING PHYTOCHEMICAL BIOAVAILABLITY AND BIOACTIVITY” (North Carolina State University, priority 2017, published 2020)
